Converted amounts (≈) assume the structure as drawn. Counter-ions that a name gives are not always drawn. Like-named read-outs stand apart in the source and are kept apart here.
Key:
Bacillus subtilis PCI219 = test: Growth-inhibiting action on Bacillus subtilis (agar plate MIC); type: cell-based; details: nutrient agar, 20 hours at 37° C.
Method: Each of the compounds of this invention was dissolved in nutrient agar media to final concentrations of 100, 50, 25, 12.5, 6.25, 3.13 and 1.56 μg/ml, to prepare agar plates for testing. Bacillus subtilis PCI219 was adjusted to a content of 1×10^6 viable cells/ml, in a culture broth, and a loopful of the broth was applied onto the agar plates. The plates were incubated for 20 hours at 37° C. under stationary conditions, and observed for the formation of colonies of Bacillus subtilis. The lowest of the concentrations at which no colonies were formed was taken to be minimum inhibitory concentration (MIC).

[1] = Stability of the compounds in aqueous solutions (HPLC residual content); type: physicochemical; details: for remaining at 12 h / remaining at 24 h / remaining at 48 h / remaining at 72 h / remaining at 120 h / remaining at 168 h: water; for Residual content (%) of the compound in an aqueous solution: 0.5 (w/w)% in water, 40°±1° C., initial content = 100%
Method: Each of the compounds of this invention was dissolved in water to a concentration of 0.5 (w/w)%. The aqueous solution was maintained at 40°±1° C., and sampled at certain time intervals. Each sample was subjected to high-performance liquid chromatographic analysis to measure the area of the peak of the compound at each sampling time, and to calculate the ratio of the area of the peak after the indicated period of time to that at the first sampling time. The results of the calculation were used to determine the contents (%) of the compound of this invention in the aqueous solution after the indicated periods of time, with the initial content of said compound set at 100%.

[2] = test system: mouse leukemia L1210 cells; test: In vitro proliferation-inhibiting action on mouse leukemia L1210 cells; type: cell-based; details: 48 hours at 37° C.
Method: Leukemia L1210 cells (1×10^5 /0.2 ml) were transplanted to female DBA/2 mice intraperitoneally. four days later, the ascitic fluid was collected and centrifuged to obtain proliferated L1210 cells. The L1210 cells collected were added to RPMI1640 medium containing bovine fetal serum and 2-mercaptoethanol, to obtain a suspension of L1210 cells having a final concentration of 5×10^4 cells/0.9 ml. Each of the compounds of this invention was dissolved in said culture medium to prepare solutions with final concentrations ranging from 0.062 to 100 μg/ml. 0.9 ml of the L1210 cell suspension and 0.1 ml of each test solution were mixed in petri dishes, and incubated for 48 hours at 37° C. in an incubator under an atmosphere of carbon dioxide gas. The number of L1210 cells was counted before and after the incubation, and that concentration of the compound which inhibited the proliferation of L1210 cells by 50% of the control's proliferation was determined (IC50).

[3] = Bacillus subtilis, PCI219, read-out: MIC

Row | MIC (Bacillus subtilis PCI219; [3]) [µg/mL] | remaining at 12 h [1] [%] | remaining at 24 h [1] [%] | remaining at 48 h [1] [%] | remaining at 72 h [1] [%] | remaining at 120 h [1] [%] | remaining at 168 h [1] [%] | IC50 [2] [µg/mL] | MIC (Bacillus subtilis PCI219) [µg/mL] | Residual content (%) of the compound in an aqueous solution ([1]; 12 hr) [%] | Residual content (%) of the compound in an aqueous solution ([1]; 24 hr) [%] | Residual content (%) of the compound in an aqueous solution ([1]; 48 hr) [%] | Residual content (%) of the compound in an aqueous solution ([1]; 72 hr) [%] | Residual content (%) of the compound in an aqueous solution ([1]; 120 hr) [%] | Residual content (%) of the compound in an aqueous solution ([1]; 168 hr) [%] | SMILES
1 | 100 (≈ 241 µM) | 100 | 99.5 | 99.7 | 99.3 | 99.7 | 99.5 | 150 (≈ 361 µM) |  |  |  |  |  |  |  | N=C(N)NCCCCCCC(=O)NC(CCO)C(=O)NCCCCNCCCN (racemic) [Compound 18]
2 | 6.25 | 99.3 | 99.5 | 100 | 99.6 | 99.7 | 100 | 0.95 |  |  |  |  |  |  |  | N=C(N)NCCCC[C@H](O)CC(=O)N[C@@H](CO)C(=O)NCCCCNCCCN [Compound 3, 10-[N--(7-guanidino-3(S)--hydroxyheptanoyl)-L-seryl]-1,5,10-triazadecane trihydrochloride]
3 | 12.5 | 101 | 100 | 100 | 99.7 | 99.6 | 100 | 3.6 |  |  |  |  |  |  |  | N=C(N)NCCCCCCC(=O)N[C@H](CO)C(=O)NCCCCNCCCN [Compound 4, 10-[N--(7-guanidinoheptanoyl)-D-seryl]-1,5,10-triazadecane trihydrochloride]
4 | 25 | 99.8 | 99.8 | 100 | 99.6 | 99 | 99.9 | 37 |  |  |  |  |  |  |  | C[C@H](NC(=O)CCCCCCNC(=N)N)C(=O)NCCCCNCCCN [Compound 5, 10-[N--(7-guanidinoheptanoyl)-L-alanyl]-1,5,10-triazadecane trihydrochloride]
5 | 25 | 100 | 100 | 99.6 | 99.6 | 99.9 | 100 | 0.84 |  |  |  |  |  |  |  | N=C(N)NCCCCCCC(=O)NCCC(=O)NCCCCNCCCN [Compound 6, 10-[N--(7-guanidinoheptanoyl)-β-alanyl]-1,5,10-triazadecane trihydrochloride]
6 | 25 | 99.9 | 100 | 99.8 | 99.9 | 100 | 99.8 | 1.9 |  |  |  |  |  |  |  | N=C(N)NCCCCCCC(=O)NCCCC(=O)NCCCCNCCCN [Compound 7, 10-[N--(7-guanidinoheptanoyl)-γ-aminobutanoyl]-1,5,10-triazadecane trihydrochloride]
7 | > 100 | 100 | 100 | 99.6 | 99.8 | 99.8 | 100 |  |  |  |  |  |  |  |  | N=C(N)NCCCCCCC(=O)N1CCC[C@H]1C(=O)NCCCCNCCCN [Compound 8, 10-[N--(7-guanidinoheptanoyl)-L-prolyl]-1,5,10-triazadecane trihydrochloride]
8 | > 100 | 99.7 | 99.9 | 99.8 | 100 | 100 | 99.9 | 70 |  |  |  |  |  |  |  | CC(C)C[C@H](NC(=O)CCCCCCNC(=N)N)C(=O)NCCCCNCCCN [Compound 9, 10-[N--(7-guanidinoheptanoyl)-L-leucyl]-1,5,10-triazadecane trihydrochloride]
9 | > 100 | 99.9 | 99.4 | 99.8 | 100 | 99.8 | 99.9 | 130 |  |  |  |  |  |  |  | N=C(N)NCCCCCCC(=O)N[C@@H](CC(=O)O)C(=O)NCCCCNCCCN [Compound 10, 10-[N--(7-guanidinoheptanoyl)-L-asparthyl]-1,5,10-triazadecane trihydrochloride]
10 |  |  |  |  |  |  |  |  | > 100 | 99.5 | 99.7 | 101 | 99.5 | 100 | 99.3 | Cl.Cl.Cl.N=C(N)NCCCCCCC(=O)N[C@@H](CCC(N)=O)C(=O)NCCCCNCCCN [Compound 11, 10-[N--(7-guanidinoheptanoyl)-L-glutaminyl]-1,5,10-triazadecane trihydrochloride]
11 | 12.5 | 100 | 99.4 | 99.7 | 99.9 | 100 | 99.7 | 1.5 |  |  |  |  |  |  |  | N=C(N)NCCCCCCC(=O)N[C@@H](CCCNC(=N)N)C(=O)NCCCCNCCCN [Compound 12, 10-[N--(7-guanidinoheptanoyl)-L-arginyl]-1,5,10-triazadecane trihydrochloride]
12 | > 100 | 99.8 | 99.5 | 99.9 | 100 | 101 | 100 | 2.8 |  |  |  |  |  |  |  | N=C(N)NCCCCCCC(=O)N[C@@H](Cc1ccccc1)C(=O)NCCCCNCCCN [Compound 13, 10-[N--(7-guanidinoheptanoyl)-L-phenylalanyl]-1,5,10-triazadecane trihydrochloride]
13 | 50 | 99.1 | 99 | 99.6 | 99.5 | 99.9 | 99.6 | 51 |  |  |  |  |  |  |  | N=C(N)NCCCCCCC(=O)N[C@@H](Cc1cnc[nH]1)C(=O)NCCCCNCCCN [Compound 14, 10-[N--(7-guanidinoheptanoyl)-L-histidyl]-1,5,10-triazadecane trihydrochloride]
14 | 100 | 99.2 | 99.8 | 99.1 | 100 | 99.6 | 100 | 180 |  |  |  |  |  |  |  | C[C@@H](O)[C@H](NC(=O)CCCCCCNC(=N)N)C(=O)NCCCCNCCCN [Compound 15, 10-[N--(7-guanidinoheptanoyl)-L-threonyl]-1,5,10-triazadecane trihydrochloride]
15 | 6.25 | 99.6 | 100 | 99.8 | 99.7 | 100 | 99.3 | 11.3 |  |  |  |  |  |  |  | N=C(N)NCCCCCCCCC(=O)N[C@@H](CO)C(=O)NCCCCNCCCN [Compound 17, 10-[N--(9-guanidinononanoyl)-L-seryl]-1,5,10-triazadecane trihydrochloride]

Row | SMILES | MIC (Bacillus subtilis PCI219; [3]) [µg/mL] | remaining at 12 h [1] [%] | remaining at 24 h [1] [%] | remaining at 48 h [1] [%] | remaining at 72 h [1] [%] | remaining at 120 h [1] [%] | remaining at 168 h [1] [%] | IC50 [2] [µg/mL] | MIC (Bacillus subtilis PCI219) [µg/mL] | Residual content (%) of the compound in an aqueous solution ([1]; 12 hr) [%] | Residual content (%) of the compound in an aqueous solution ([1]; 24 hr) [%] | Residual content (%) of the compound in an aqueous solution ([1]; 48 hr) [%] | Residual content (%) of the compound in an aqueous solution ([1]; 72 hr) [%] | Residual content (%) of the compound in an aqueous solution ([1]; 120 hr) [%] | Residual content (%) of the compound in an aqueous solution ([1]; 168 hr) [%]
16 | CC(=O)O[C@@H](CCCCNC(=N)N)CC(=O)NCC(=O)NCCCCNCCCN [Compound 16, 10-[N--(7-guanidino-3(S)--acetoxyheptanoyl)-glycyl-1,5,10-triazadecanetrihydrochloride] | > 100 | 99.9 | 99.5 | 99.6 | 99.2 | 99.6 | 99.6 |  |  |  |  |  |  |  | 

From patent US4529549A, “Spergualin-related compounds and process for the preparation thereof” (Zaidan Hojin Biseibutsu Kagaku Kenkyu Kai, priority 1982, dated 1985)
